# In publication PMC11864979, “First-in-class ultralong-target-residence-time p38α inhibitors as a mitosis-targeted therapy for colorectal cancer” (Nature Cancer, 2025):
# Like-named read-outs stand apart in the source and are kept apart here.
# Experiments:
# Assay in all cases: selectivity profiling in a panel of 340 wild-type kinases (Reaction Biology Europe)
# Assay type in all cases: binding
# [1] = target: T1, 340 wild-type kinases (Homo sapiens, UniProt O43293)
# T1 construct: purchased Reaction Biology Europe
# T1 sequence (O43293 whole entry): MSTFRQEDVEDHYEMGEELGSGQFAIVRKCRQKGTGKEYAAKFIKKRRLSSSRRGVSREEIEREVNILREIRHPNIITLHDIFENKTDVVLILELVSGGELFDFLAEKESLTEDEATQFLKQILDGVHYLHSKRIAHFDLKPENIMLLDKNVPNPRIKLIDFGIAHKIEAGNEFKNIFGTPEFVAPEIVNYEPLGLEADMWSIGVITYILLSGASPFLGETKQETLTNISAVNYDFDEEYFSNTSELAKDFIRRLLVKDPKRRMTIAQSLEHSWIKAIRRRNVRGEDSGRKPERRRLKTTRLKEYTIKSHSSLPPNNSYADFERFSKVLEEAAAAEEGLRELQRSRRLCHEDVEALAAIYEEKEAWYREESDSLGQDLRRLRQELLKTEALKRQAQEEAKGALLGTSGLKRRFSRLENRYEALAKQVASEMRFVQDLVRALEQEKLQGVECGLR
# [2] = target: T2, 340 wild-type kinases (Homo sapiens, UniProt O75914)
# T2 construct: purchased Reaction Biology Europe
# T2 sequence (O75914 whole entry): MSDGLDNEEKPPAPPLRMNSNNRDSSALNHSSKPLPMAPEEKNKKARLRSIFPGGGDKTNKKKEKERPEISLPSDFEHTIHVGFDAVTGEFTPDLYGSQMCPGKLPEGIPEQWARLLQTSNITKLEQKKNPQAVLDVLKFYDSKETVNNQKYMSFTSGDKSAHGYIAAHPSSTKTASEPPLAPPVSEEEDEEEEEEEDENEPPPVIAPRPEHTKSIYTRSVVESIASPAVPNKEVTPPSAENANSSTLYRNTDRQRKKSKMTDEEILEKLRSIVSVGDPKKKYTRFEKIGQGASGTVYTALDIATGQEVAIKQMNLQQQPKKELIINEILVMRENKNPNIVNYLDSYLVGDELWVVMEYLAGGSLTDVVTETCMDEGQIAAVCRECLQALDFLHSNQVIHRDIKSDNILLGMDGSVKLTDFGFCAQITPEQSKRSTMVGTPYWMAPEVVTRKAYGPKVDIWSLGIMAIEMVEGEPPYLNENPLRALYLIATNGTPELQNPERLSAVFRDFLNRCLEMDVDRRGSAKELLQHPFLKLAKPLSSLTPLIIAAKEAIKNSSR
# [3] = target: T3, 340 wild-type kinases (Homo sapiens, UniProt P08922)
# T3 construct: purchased Reaction Biology Europe
# T3 sequence (P08922 28-2347): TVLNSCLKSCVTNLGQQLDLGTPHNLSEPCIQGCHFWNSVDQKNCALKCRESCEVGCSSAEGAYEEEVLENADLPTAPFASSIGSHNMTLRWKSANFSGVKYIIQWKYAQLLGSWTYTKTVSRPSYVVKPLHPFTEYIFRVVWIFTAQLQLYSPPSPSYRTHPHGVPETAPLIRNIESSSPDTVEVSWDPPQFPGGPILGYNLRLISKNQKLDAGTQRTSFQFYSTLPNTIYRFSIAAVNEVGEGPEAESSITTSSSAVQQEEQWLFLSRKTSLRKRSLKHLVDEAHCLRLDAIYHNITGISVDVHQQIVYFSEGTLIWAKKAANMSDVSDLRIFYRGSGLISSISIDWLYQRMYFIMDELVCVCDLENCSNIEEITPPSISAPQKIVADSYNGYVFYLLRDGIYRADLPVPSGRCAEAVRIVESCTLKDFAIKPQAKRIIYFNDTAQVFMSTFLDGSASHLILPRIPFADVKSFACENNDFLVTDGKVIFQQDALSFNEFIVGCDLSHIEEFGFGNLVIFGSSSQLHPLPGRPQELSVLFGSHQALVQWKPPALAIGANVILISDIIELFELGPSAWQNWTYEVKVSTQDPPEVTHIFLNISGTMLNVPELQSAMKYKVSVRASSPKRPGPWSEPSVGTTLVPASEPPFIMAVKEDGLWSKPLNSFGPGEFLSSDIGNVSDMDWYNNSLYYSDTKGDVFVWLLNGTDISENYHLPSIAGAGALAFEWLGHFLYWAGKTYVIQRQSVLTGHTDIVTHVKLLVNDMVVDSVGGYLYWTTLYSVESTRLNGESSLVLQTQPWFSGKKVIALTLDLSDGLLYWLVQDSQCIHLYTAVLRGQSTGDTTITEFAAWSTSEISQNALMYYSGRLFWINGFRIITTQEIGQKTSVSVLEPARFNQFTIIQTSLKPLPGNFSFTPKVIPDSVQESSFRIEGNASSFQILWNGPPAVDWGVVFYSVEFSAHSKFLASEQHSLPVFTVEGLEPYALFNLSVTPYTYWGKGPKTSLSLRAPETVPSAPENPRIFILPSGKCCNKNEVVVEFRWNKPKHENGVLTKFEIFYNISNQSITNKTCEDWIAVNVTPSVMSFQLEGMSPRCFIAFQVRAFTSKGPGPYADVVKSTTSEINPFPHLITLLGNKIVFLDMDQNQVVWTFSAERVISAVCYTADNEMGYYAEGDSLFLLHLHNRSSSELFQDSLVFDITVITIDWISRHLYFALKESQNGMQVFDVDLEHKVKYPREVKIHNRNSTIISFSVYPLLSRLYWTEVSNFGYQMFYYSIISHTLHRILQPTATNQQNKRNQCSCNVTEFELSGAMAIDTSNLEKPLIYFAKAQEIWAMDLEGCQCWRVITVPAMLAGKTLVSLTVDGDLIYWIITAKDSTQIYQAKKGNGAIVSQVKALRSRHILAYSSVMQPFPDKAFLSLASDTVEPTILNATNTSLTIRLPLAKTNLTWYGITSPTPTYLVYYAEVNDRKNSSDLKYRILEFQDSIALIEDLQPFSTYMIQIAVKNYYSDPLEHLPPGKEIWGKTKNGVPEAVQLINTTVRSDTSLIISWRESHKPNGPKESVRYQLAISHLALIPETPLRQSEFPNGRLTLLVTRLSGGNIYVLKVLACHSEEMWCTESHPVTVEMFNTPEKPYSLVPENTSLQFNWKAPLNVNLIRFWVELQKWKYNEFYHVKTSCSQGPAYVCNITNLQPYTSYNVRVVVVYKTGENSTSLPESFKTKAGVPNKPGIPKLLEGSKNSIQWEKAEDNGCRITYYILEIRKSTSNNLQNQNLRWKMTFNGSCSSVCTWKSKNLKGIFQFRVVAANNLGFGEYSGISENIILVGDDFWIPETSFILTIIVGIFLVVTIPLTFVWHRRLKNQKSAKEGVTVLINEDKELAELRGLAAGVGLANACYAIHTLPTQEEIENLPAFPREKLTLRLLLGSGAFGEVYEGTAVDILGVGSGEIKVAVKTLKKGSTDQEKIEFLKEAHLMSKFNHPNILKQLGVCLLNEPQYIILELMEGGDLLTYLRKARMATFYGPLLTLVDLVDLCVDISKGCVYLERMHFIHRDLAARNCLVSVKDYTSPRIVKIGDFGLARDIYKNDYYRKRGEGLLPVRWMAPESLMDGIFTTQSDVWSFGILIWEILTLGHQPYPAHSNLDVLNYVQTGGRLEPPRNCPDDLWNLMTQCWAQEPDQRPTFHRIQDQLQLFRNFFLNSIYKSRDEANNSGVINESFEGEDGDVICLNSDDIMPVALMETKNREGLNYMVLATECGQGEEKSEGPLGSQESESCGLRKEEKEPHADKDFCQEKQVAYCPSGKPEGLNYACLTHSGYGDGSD
# [4] = target: T4, 340 wild-type kinases (Homo sapiens, UniProt P09769)
# T4 construct: purchased Reaction Biology Europe
# [5] = target: T5, 340 wild-type kinases (Homo sapiens, UniProt Q13164)
# T5 construct: purchased Reaction Biology Europe
# T5 sequence (Q13164 whole entry): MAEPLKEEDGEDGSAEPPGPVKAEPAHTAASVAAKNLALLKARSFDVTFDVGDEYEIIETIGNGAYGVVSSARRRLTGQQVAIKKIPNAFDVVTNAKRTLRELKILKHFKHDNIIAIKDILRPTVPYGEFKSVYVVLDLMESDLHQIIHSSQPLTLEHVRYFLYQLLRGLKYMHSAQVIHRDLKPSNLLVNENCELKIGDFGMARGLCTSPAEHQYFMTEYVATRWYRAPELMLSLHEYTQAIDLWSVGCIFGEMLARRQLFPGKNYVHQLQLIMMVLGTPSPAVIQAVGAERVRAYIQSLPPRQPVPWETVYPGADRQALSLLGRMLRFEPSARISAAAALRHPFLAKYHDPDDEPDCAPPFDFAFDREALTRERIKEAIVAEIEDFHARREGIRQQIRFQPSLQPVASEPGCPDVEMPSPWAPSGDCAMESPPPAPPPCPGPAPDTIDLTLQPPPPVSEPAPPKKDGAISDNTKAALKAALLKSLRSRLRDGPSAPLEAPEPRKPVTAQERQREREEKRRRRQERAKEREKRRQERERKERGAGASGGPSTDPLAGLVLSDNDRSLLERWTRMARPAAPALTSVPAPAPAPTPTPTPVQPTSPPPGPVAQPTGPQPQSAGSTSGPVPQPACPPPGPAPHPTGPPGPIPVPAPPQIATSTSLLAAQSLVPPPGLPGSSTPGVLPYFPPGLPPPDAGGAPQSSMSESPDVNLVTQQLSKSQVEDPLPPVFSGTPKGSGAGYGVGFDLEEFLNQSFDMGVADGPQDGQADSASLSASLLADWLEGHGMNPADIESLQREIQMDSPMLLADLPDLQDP
# [6] = target: T6, 340 wild-type kinases (Homo sapiens, UniProt Q13705)
# T6 construct: purchased Reaction Biology Europe
# T6 sequence (Q13705 19-512): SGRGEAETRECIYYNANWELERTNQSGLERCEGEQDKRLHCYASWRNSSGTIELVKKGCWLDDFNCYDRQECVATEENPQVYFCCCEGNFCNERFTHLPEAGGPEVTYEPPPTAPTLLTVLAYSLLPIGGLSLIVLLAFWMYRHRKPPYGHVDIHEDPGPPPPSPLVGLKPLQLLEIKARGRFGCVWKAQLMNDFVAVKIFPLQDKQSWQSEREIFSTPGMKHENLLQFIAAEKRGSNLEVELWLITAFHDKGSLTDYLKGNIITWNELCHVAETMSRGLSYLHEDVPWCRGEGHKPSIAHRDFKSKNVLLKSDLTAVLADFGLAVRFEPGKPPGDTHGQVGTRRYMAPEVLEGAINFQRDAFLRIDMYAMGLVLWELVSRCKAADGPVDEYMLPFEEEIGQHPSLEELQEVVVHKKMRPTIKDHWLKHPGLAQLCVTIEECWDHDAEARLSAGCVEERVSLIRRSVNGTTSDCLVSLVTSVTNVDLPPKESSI
# [7] = target: T7, 340 wild-type kinases (Homo sapiens, UniProt Q96L34)
# T7 construct: purchased Reaction Biology Europe
# T7 sequence (Q96L34 1-752): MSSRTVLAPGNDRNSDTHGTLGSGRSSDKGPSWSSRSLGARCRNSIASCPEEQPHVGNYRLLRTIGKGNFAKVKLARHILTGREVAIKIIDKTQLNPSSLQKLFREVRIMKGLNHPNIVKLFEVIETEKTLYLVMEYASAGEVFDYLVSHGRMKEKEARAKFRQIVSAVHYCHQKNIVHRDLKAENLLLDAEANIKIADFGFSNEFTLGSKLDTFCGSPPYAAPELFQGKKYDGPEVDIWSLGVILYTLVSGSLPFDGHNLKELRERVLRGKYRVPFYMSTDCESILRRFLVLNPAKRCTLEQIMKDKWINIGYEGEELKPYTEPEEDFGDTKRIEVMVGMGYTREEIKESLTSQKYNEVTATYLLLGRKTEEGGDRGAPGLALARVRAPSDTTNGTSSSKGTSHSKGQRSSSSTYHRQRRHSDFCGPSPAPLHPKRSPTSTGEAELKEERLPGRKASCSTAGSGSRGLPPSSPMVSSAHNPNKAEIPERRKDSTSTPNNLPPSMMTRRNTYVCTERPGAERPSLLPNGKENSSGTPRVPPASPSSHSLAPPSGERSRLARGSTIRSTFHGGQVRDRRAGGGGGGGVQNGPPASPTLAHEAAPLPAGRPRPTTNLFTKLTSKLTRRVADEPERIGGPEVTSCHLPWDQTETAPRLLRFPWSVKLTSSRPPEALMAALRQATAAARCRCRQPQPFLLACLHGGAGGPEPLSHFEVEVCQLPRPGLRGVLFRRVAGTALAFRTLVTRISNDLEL
# [8] = target: T8, 340 wild-type kinases (Homo sapiens, UniProt Q9BXA7)
# T8 construct: purchased Reaction Biology Europe
# T8 sequence (Q9BXA7 1-367): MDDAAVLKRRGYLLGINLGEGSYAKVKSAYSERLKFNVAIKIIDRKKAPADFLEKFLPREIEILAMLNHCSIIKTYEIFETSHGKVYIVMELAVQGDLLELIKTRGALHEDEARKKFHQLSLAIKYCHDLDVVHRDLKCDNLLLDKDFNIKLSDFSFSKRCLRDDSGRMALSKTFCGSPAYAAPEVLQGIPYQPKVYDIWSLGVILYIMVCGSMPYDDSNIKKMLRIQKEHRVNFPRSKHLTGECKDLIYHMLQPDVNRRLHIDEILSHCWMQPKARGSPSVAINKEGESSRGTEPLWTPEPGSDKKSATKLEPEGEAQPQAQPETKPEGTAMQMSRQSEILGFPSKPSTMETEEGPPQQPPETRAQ
# [9] = target: T9, 340 wild-type kinases (Homo sapiens, UniProt Q9UHD2)
# T9 construct: purchased Reaction Biology Europe
# T9 sequence (Q9UHD2 1-729): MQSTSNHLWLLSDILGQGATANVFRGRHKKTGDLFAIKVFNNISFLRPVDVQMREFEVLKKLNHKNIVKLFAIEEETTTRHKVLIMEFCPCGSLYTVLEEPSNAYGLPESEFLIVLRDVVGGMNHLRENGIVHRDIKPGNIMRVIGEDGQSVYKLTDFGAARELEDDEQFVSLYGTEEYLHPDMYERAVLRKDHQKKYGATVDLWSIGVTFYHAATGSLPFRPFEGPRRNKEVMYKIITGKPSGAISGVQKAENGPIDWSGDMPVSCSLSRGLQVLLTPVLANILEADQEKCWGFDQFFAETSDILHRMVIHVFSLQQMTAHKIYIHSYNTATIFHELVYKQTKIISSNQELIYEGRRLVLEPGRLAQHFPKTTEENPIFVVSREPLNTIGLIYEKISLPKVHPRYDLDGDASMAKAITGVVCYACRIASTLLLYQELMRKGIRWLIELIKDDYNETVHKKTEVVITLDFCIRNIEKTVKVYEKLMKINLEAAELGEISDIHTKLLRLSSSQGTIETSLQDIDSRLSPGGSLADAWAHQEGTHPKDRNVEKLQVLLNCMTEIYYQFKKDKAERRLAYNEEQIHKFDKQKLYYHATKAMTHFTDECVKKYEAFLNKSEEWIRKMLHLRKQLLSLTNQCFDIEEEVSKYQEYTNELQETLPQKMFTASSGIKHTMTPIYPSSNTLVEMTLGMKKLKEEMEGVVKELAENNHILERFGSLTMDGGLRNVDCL
smiles,measurement,setting,value
CNC(=O)c1ccc2c(c1)C(=O)c1ccc(Nc3ccc(F)c(NC(=O)C4CC4)c3)cc1CC2 [Compound 2015],remaining activity at 0.2 µM,"[1]; 0.2 µM 2015, read-out: DAPK3 residual activity",110%
same,remaining activity at 1 µM,"[1]; 1 µM 2015, read-out: DAPK3 residual activity",115%
same,remaining activity at 0.2 µM,"[1]; DAPK3, 0.2 µM, read-out: residual activity",110%
same,remaining activity at 1 µM,"[1]; DAPK3, 1 µM, read-out: residual activity",115%
same,remaining activity at 0.2 µM,"[2]; 0.2 µM 2015, read-out: PAK3 residual activity",97.6%
same,remaining activity at 1 µM,"[2]; 1 µM 2015, read-out: PAK3 residual activity",96.3%
same,remaining activity at 0.2 µM,"[2]; PAK3, 0.2 µM, read-out: residual activity",97.6%
same,remaining activity at 1 µM,"[2]; PAK3, 1 µM, read-out: residual activity",96.3%
same,remaining activity at 0.2 µM,"[3]; 0.2 µM 2015, read-out: ROS residual activity",114%
same,remaining activity at 1 µM,"[3]; 1 µM 2015, read-out: ROS residual activity",94.6%
same,remaining activity at 0.2 µM,"[3]; ROS, 0.2 µM, read-out: residual activity",114%
same,remaining activity at 1 µM,"[3]; ROS, 1 µM, read-out: residual activity",94.6%
same,remaining activity at 0.2 µM,"[4]; 0.2 µM 2015, read-out: FGR residual activity",101%
same,remaining activity at 1 µM,"[4]; 1 µM 2015, read-out: FGR residual activity",102%
same,remaining activity at 0.2 µM,"[4]; FGR, 0.2 µM, read-out: residual activity",101%
same,remaining activity at 1 µM,"[4]; FGR, 1 µM, read-out: residual activity",102%
same,remaining activity at 0.2 µM,"[5]; 0.2 µM 2015, read-out: ERK5 residual activity",112%
same,remaining activity at 1 µM,"[5]; 1 µM 2015, read-out: ERK5 residual activity",99%
same,remaining activity at 0.2 µM,"[5]; ERK5, 0.2 µM, read-out: residual activity",112%
same,remaining activity at 1 µM,"[5]; ERK5, 1 µM, read-out: residual activity",99%
same,remaining activity at 0.2 µM,"[6]; 0.2 µM 2015, read-out: ACVR2B residual activity",81.6%
same,remaining activity at 1 µM,"[6]; 1 µM 2015, read-out: ACVR2B residual activity",82.3%
same,remaining activity at 0.2 µM,"[6]; ACVR2B, 0.2 µM, read-out: residual activity",81.7%
same,remaining activity at 1 µM,"[6]; ACVR2B, 1 µM, read-out: residual activity",82.3%
same,remaining activity at 0.2 µM,"[7]; 0.2 µM 2015, read-out: MARK4 residual activity",94.8%
same,remaining activity at 1 µM,"[7]; 1 µM 2015, read-out: MARK4 residual activity",84.1%
same,remaining activity at 0.2 µM,"[7]; MARK4, 0.2 µM, read-out: residual activity",94.8%
same,remaining activity at 1 µM,"[7]; MARK4, 1 µM, read-out: residual activity",84.1%
same,remaining activity at 0.2 µM,"[8]; 0.2 µM 2015, read-out: TSSK1 residual activity",125%
same,remaining activity at 1 µM,"[8]; 1 µM 2015, read-out: TSSK1 residual activity",106%
same,remaining activity at 0.2 µM,"[8]; TSSK1, 0.2 µM, read-out: residual activity",125%
same,remaining activity at 1 µM,"[8]; TSSK1, 1 µM, read-out: residual activity",106%
same,remaining activity at 0.2 µM,"[9]; 0.2 µM 2015, read-out: TBK1 residual activity",120%
same,remaining activity at 1 µM,"[9]; 1 µM 2015, read-out: TBK1 residual activity",101%
same,remaining activity at 0.2 µM,"[9]; TBK1, 0.2 µM, read-out: residual activity",120%
same,remaining activity at 1 µM,"[9]; TBK1, 1 µM, read-out: residual activity",101%
